Experimental findings from patent US6906035B2, “Antimicrobial cationic peptides” (priority 1995, dated 2005) are described below.

In one data set the test system is P. aeruginosa. As to conditions: for MIC P. aeruginosa (H187): Table 6; for MIC H103: MBI 29 and MBI21 derivatives. The protocol: (§1) FICs are performed by checkerboard titrations of peptides in one dimension of a microtiter plate, and of antibiotics in the other dimension, for example. The FIC is calculated by looking at the impact of one antibiotic on the MIC of the other and vice versa. […] Preferably, an FIC of less than 0.5 is obtained for synergism. As used herein, FIC can be determined as follows: [formula]
(§2) Briefly, cells were grown overnight at 37° C. in LB-S (Luria broth without any salt supplement) and diluted one in 10,000 in the same medium to give concentrations of about 10^4 to 10^5 CFU/ml. The broth dilutions were set up in a 96 well microtiter plate by putting 200 μl of LB-S containing the initial concentration of antibiotic or compound in column 1 and 100 μl of the same medium in columns 2-12. The compounds were diluted by taking 100 μl of broth from column 1 and mixing it with column 2, resulting in a one in two dilution. This was continued to column 10. Finally, 10 μl of bacteria were pipetted into columns 1-11, and the plates incubated overnight at 37° C. The next day the plates were scored for growth in the wells, and the MIC determined.

A further data set relates to Red Blood Cells. In words: Red blood cell lysis. It counts as cell-based. The conditions noted are these: concentration lysing Red Blood Cells.
In a further data set the test system is E. coli. In words: MIC, broth dilution in LB-S. The class given is cell-based. The conditions noted are these: for MIC E. coli (UB 1005): Table 6; for MIC E. coli 0111:B4: MBI 29 and MBI21 derivatives. The protocol:
(§3) The biological activity of the peptides can be determined by standard methods known to those of skill in the art, such as “minimal inhibitory concentration (MIC)” assay described in the present examples, whereby the lowest concentration at which no change in OD is observed for a given period of time is recorded as MIC. Alternatively, “fractional inhibitory concentration (FIC)” is also useful for determination of synergy between the peptides of the invention, or the peptides in combination with known antibiotics. FICs are performed by checkerboard titrations of peptides in one dimension of a microtiter plate, and of antibiotics in the other dimension, for example. The FIC is calculated by looking at the impact of one antibiotic on the MIC of the other and vice versa. […] Preferably, an FIC of less than 0.5 is obtained for synergism. As used herein, FIC can be determined as follows: [formula]
as §2

Another data set relates to S. epidermis. The conditions noted are these: S. epi 0017; MBI 29 and MBI21 derivatives. As for the experimental part: as §1, §2
Another data set concerns C610. In words: MIC, broth dilution in LB-S. The class given is cell-based, S. typhimurium. As to conditions: MBI 29 and MBI21 derivatives. As for the experimental part: as §3, §2
The subject of the next data set is S. aureus. In words: MIC, broth dilution in LB-S. It counts as cell-based. The conditions noted are these: MBI 29 and MBI21 derivatives. As for the experimental part:
as §3, §2
In general terms: Broth dilution looks for growth in wells or tubes with falling amounts of substance.

A further data set deals with B. Subtilis. Put plainly: MIC, broth dilution in LB-S. The conditions noted are these: MBI 29 and MBI21 derivatives. The class given is cell-based. The protocol:
as §3, §2

The next data set concerns E. faecalis. Put plainly: MIC, broth dilution in LB-S. As to conditions: MBI 29 and MBI21 derivatives. The class given is cell-based. The protocol:
as §3, §2

Ends that are not written are not given here.

Take `CC[C@H](C)[C@H](NC(=O)[C@H](CC(C)C)NC(=O)[C@H](C)NC(=O)[C@@H]1CCCN1C(=O)[C@H](CC(C)C)NC(=O)CNC(=O)[C@@H](NC(=O)[C@@H](NC(=O)[C@H](CC(C)C)NC(=O)[C@@H](NC(=O)[C@H](CCCCN)NC(=O)[C@H](CCCCN)NC(=O)[C@@H](NC(=O)[C@H](C)NC(=O)[C@@H](NC(=O)[C@@H](NC(=O)[C@H](CC(C)C)NC(=O)[C@H](CCCCN)NC(=O)[C@H](CCCCN)NC(=O)[C@@H](NC(=O)[C@H](Cc1ccccc1)NC(=O)[C@H](CCC(=O)O)NC(=O)[C@H](CCCCN)NC(=O)[C@H](Cc1c[nH]c2ccccc12)NC(=O)[C@@H](N)CCCCN)[C@@H](C)CC)[C@@H](C)O)[C@@H](C)O)C(C)C)C(C)C)[C@@H](C)O)[C@@H](C)O)C(=O)N[C@@H](CO)C(=O)O` [compound 492]: the “MIC P. aeruginosa (H187)” value in the data set on P. aeruginosa was 4.8 µg/mL. In addition, in the data set with Red Blood Cells, the “RBC Lysis” value was above 55 µg/mL. The “MIC E. coli (UB 1005)” value with E. coli turned out to be 2.4 µg/mL.

With “KWKKFIKELQKVLAPGGLLSNIVTSL [compound 493]”, in the data set on P. aeruginosa, the “MIC P. aeruginosa (H187)” value stood at 10 µg/mL. Further, the “RBC Lysis” value in the data set with Red Blood Cells is above 55 µg/mL. In the data set on E. coli, the “MIC E. coli (UB 1005)” value is 5 µg/mL.

In the case of “KWKSFIKNLEKVLKKGPILANLVSIV [compound 491]”, the “MIC P. aeruginosa (H187)” value in the data set on P. aeruginosa turned out to be 8 µg/mL. Moreover, the “RBC Lysis” value in the data set with Red Blood Cells is above 55 µg/mL. Further, the “MIC E. coli (UB 1005)” value in the data set on E. coli came to 2 µg/mL.

Turning to “KWKSFIKNLEKVLKPGGLLSNIVTSL [compound 490]”, the “MIC P. aeruginosa (H187)” value with P. aeruginosa was determined as 8 µg/mL. In the data set on Red Blood Cells, the “RBC Lysis” value was above 55 µg/mL. Also, in the data set on E. coli, the “MIC E. coli (UB 1005)” value turned out to be 1 µg/mL.

Consider KWKSFIKNLTKVLKKVVTTALPALIS [MBI29A2], for which, in the data set on P. aeruginosa, the “MIC H103” value was determined as 16 µg/mL. Further, the “MIC S. epi 0017” value with S. epidermis is 16 µg/mL. Also, the “MIC C610” value in the data set on C610 stood at 8 µg/mL. Also, in the data set with S. aureus, the “MIC K147” value was found to be 16 µg/mL and the “MIC SAP” value came out at 8 µg/mL. Also, the “MIC B. Subtilis” value with B. Subtilis was found to be 8 µg/mL. Also, the “MIC E. faecalis” value with E. faecalis is 64 µg/mL. The “MIC E. coli 0111:B4” value with E. coli is 8 µg/mL.

For KWWRRALQGLKTAGPAIQSVLNK [MBI21A2], the “MIC H103” value in the data set with P. aeruginosa turned out to be 128 µg/mL. The “MIC S. epi 0017” value in the data set with S. epidermis was above 128 µg/mL. Besides, in the data set on C610, the “MIC C610” value is 16 µg/mL. In the data set on S. aureus, the “MIC K147” value was above 128 µg/mL and the “MIC SAP” value was above 128 µg/mL. Besides, the “MIC B. Subtilis” value with B. Subtilis is above 128 µg/mL. Also, in the data set on E. faecalis, the “MIC E. faecalis” value is above 128 µg/mL. Also, in the data set on E. coli, the “MIC E. coli 0111:B4” value was 32 µg/mL.
